# Paper PMC3457943, “Inhibition of poly(ADP-ribose) Polymerase Interferes with Trypanosoma cruzi Infection and Proliferation of the Parasite” (PLoS ONE, 2012)
# Like-named read-outs stand apart in the source and are kept apart here.
# Assays:
# T. cruzi amastigotes = test system: T. cruzi amastigotes; design: method as in PMID 6330132; conditions: millimolar concentrations, mainly axenic amastigote cultures; cited from earlier work
# TcPARP [1] = target: TcPARP (Trypanosoma cruzi, UniProt Q4PQV7); assay: Homogeneous fluorometric TcPARP activity assay (remaining NAD+); assay type: biochemical; conditions: 10 nM TcPARP, 500 nM NAD+
# Description: (§1) Enzymatic activity was measured using a fluorometric assay, which quantifies the remaining NAD^+ after the enzymatic reaction, [10]. Briefly, TcPARP was incubated with 500 nM NAD^+ in a 96-well U-bottom black propylene plate (Greiner BioOne) in a final volume of 50 µl. The reaction was carried out at 25°C with shaking at 300 rpm using PST-60 HL plus Thermo Shaker (Biosan, Riga, Latvia). The reaction was terminated by the addition of 20 µl of 2 M KOH and 20 µl of 20% acetophenone in ethanol, and plate was incubated at room temperature for 10 minutes. Next, 90 µl of 88% formic acid was added and the plate was incubated at room temperature for 20 minutes. The fluorescence was measured on a Fluoroskan Ascent FL (Thermo Labsystems, Waltham, MA) using excitation at 355 nm and emission at 460 nm. The activity assay was optimized for TcPARP by assaying the effect of pH, DNA concentration, and various additives for the activity of the protein.
# (§2) A small in-house library of known PARP inhibitors was screened to evaluate their inhibitory effect against TcPARP. The inhibitor stock solutions were prepared at 10 mM in 100% DMSO and stored at −20°C, except in the case of 3-aminobenzamide, which was prepared at a stock concentration of 1 M in 100% DMSO. The compounds were screened in duplicates at 10 µM and 1 µM concentrations with separate controls for each including only NAD^+ and the compound, but not TcPARP. The protein concentration in the reactions was 10 nM.
# (§3) The IC50 value for the first generation PARP inhibitor 3-AB was determined as a reference value. The separate data points were measured in quadruplicates. […] The fluorescence signal was converted to inhibition percentage and fitted using sigmoidal dose-response fitting with variable slope (Graphpad Prism). The curves were extrapolated to 0% and 100% of inhibition by setting their inhibitor concentration 2 log units below or above the first and the last inhibitor concentration, respectively.
# hPARP-1 = conditions: cited from earlier work
# T. cruzi epimastigotes [2] = assay: Epimastigote growth inhibition assay (OD 600 nm); assay type: cell-based, Trypanosoma cruzi
# Description: T. cruzi epimastigotes were grown in LIT complete medium for 4 days up to a parasite density of 10^7 parasites/ml. The culture was placed in 96-well sterile plates in 100 µl aliquots and PARP inhibitors were added. Nifurtimox and β-lapachone were used as control compounds. DMSO control was used at 1% v/v concentration. Optical density of the cultures was determined at 600 nm each day for four days to follow parasite growth. Controls for LIT growth medium bearing no parasites were also performed. In all experiments performed, conditions were tested in triplicates. Significance of the results were analysed with one-way ANOVA using GraphPad Prism version 5.03 for Windows (GraphPad Software).
# T. cruzi epimastigotes [3] = test system: T. cruzi epimastigotes; design: method as in PMID 17936287; conditions: millimolar concentrations; cited from earlier work
# [4] = test system: pADPr formation in T. cruzi epimastigotes; assay: In vivo inhibition of pADPr formation in epimastigotes challenged with hydrogen peroxide (Western blot); assay type: cell-based, Trypanosoma cruzi; conditions: 30 min pre-incubation, 300 µM hydrogen peroxide 10 min
# Description: Cell viability was assessed by direct microscopic examination.
# Trypanosoma cruzi epimastigotes were grown in LIT complete medium for 4 days up to a parasite density of 10^7 parasites/ml. Parasites were collected by centrifugation at 750×g for 5 minutes and resuspended in PBS-Glucose 2%. T. cruzi epimastigotes were pre-incubated in the presence of inhibitors for 30 minutes and treated with 300 µM hydrogen peroxide for 10 minutes. Cells were harvested by centrifugation at 1500×g, washed with PBS and resuspended in lysis buffer (50 mM Tris–HCl pH 8.0, 1.0 mM EDTA, 10% (v/v) glycerol, 10 mM 2-mercaptoethanol). Protease inhibitors 1 µg/mL trans-epoxysuccinyl-L-leucylamido(4-guanidino) butane (E-64), […], 1 mM phenylmethylsulfonylfluoride (PMSF), and 0.1 mM Na-tosyl-L-lysine chloro-methyl ketone (TLCK) and inhibitor 3-AB (1 mM) were added. Cells were lysed with an Ultrasonic Processor Model W385 Sonicator (Heat Systems-Ultrasonic Inc. Plainview) and the whole extract obtained was used for Western blot. 30 µg of protein were run on 10% SDS–PAGE gel and transferred to Amersham Hybond-ECL nitrocellulose membrane (GE healthcare), according to the manufacturer's instructions. […] The signal was detected with the Western Lightning Plus-ECL (PerkinElmer).
# TcPARP [5] = assay: Homogeneous fluorometric TcPARP activity assay (remaining NAD+); assay type: biochemical, Trypanosoma cruzi; conditions: TcPARP IC50 versus literature hPARP-1 IC50
# Description: as §1, §2, §3
# [6] = test system: pADPr formation in human cells; design: method as in earlier work; conditions: cited from earlier work
# [7] = test system: Trypanosoma cruzi infection of Vero cells; assay: Trypanosoma cruzi infection of Vero cells; assay type: cell-based
# Description: (§4) Vero cells were cultured in D-MEM medium (Gibco), supplemented with 2 mM L-glutamine, 10% (v/v) FCS, 100 U/ml penicillin and 100 mg/l streptomycin. The wild type (Sigma-Aldrich) and PARP silenced (sh_PARP) pulmonary adenocarcinoma A549 cell lines were provided by Dr. Virág and Dr. Erdélyi, from the University of Debrecen, Hungary. A549 cells were grown in RPMI-1640 medium (Gibco), supplemented with 2 mM L-glutamine, 1 mM Sodium Pyruvate, 10% (v/v) FCS, 100 U/ml penicillin and 100 mg/l streptomycin.
# Trypomastigotes were collected by centrifugation of the supernatant of previously infected cultures at 1500×g at room temperature for 7 minutes and incubated for 3 hours at 37°C in order to allow the trypomastigotes to move from the pellet into the supernatant. After this period, the supernatant was collected and trypomastigotes were counted in a Neubauer chamber. […] For this, 50 trypomastigotes/cell were added to the medium of 24 hour-old monolayers and incubated for 24 hours at 37°C, after which they were removed by changing the cell culture medium. Infections were performed in the media above indicated, but supplemented with 3% (v/v) FCS.
# The infection was allowed to proceed and growth medium was changed periodically during the first 5 days. […] At the indicated days, cells were fixed and stained by May Grünwald Giemsa technique. Cells were visualized using an Olympus BX41 microscope. Amastigotes and cells were counted using the ImageJ software in at least 7 microscopic fields. […] Alternatively, trypomastigotes in the supernatant of the cell cultures were counted without prior fixation on a Neubauer Chamber at the indicated days. All experiments were performed in triplicates. Significance of the results were analysed with two-way ANOVA using GraphPad Prism version 5.03 for Windows (GraphPad Software).
# Vero cells = assay: Growth of uninfected Vero cells; assay type: cell-based; conditions: presence or absence of Olaparib
# [8] = test system: Trypanosoma cruzi infection of A549 wild type cells; assay: Trypanosoma cruzi infection of A549 cells; assay type: cell-based; conditions: 25 nM
# Description: as §4
# Trypomastigotes were collected by centrifugation of the supernatant of previously infected cultures at 1500×g at room temperature for 7 minutes and incubated for 3 hours at 37°C in order to allow the trypomastigotes to move from the pellet into the supernatant. After this period, the supernatant was collected and trypomastigotes were counted in a Neubauer chamber. […]
# The infection was allowed to proceed and growth medium was changed periodically during the first 5 days. […] Amastigotes and cells were counted using the ImageJ software in at least 7 microscopic fields. […] Alternatively, trypomastigotes in the supernatant of the cell cultures were counted without prior fixation on a Neubauer Chamber at the indicated days. […] Significance of the results were analysed with two-way ANOVA using GraphPad Prism version 5.03 for Windows (GraphPad Software).
# [9] = read-out: TcPARP pIC50±SE (converted)
# Chain of TcPARP (Trypanosoma cruzi, UniProt Q4PQV7) (Q4PQV7 1-592): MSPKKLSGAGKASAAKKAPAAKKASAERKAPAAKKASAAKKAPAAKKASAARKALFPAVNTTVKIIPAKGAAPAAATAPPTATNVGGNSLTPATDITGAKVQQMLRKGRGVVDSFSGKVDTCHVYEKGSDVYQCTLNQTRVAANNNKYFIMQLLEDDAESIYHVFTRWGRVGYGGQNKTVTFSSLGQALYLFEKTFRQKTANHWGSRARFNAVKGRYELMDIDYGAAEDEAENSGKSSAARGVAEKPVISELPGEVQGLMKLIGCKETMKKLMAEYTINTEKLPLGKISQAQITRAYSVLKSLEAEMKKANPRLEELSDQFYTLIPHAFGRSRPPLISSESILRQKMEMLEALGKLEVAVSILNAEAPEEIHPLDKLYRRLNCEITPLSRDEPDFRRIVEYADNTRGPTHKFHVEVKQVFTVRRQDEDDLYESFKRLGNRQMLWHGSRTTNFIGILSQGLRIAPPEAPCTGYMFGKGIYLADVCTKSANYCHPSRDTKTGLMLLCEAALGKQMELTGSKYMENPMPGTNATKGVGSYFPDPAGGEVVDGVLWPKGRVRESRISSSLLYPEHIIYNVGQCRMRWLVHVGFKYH
Compound,IC50 (TcPARP [1]; read-out: TcPARP IC50) [nM],IC50 (TcPARP [1]; [9]) [nM],IC50 (hPARP-1) [nM],further results
COc1cccc(C(N)=O)c1 [3-methoxybenzamide],,,,inhibition of differentiation of amastigotes to trypomastigotes (T. cruzi amastigotes): able to inhibit differentiation of amastigotes to trypomastigotes
"Nc1ccc2c3c(cccc13)C(=O)NC2=O [Compound 4-ANI, 8-amino-3-azatricyclo[7.3.1.0^{5,13}]trideca-1(12),5,7,9(13),10-pentaene-2,4-dione]",43,42.7,22,inhibition of pADPr formation in parasites ([4]; 215 nM): did not show complete inhibition
"Nc1ncnc2c1ncn2[C@@H]1O[C@H](C(=O)N2CCN(CC(=O)Nc3cccc4c3CNC4=O)CC2)[C@@H](O)[C@H]1O [EB-47, 2-(4-{[(2S,3S,4R,5R)-5-(6-amino-9H-purin-9-yl)-3,4-dihydroxyoxolan-2-yl]carbonyl}piperazin-1-yl)-N-(1-oxo-2,3-dihydro-1H-isoindol-4-yl)acetamide]",,,45,selectivity for TcPARP over hPARP-1 (TcPARP [5]): approximately five-fold; inhibition of pADPr formation in parasites ([4]; 43 nM): did not inhibit TcPARP at all; inhibition of pADPr formation in human cells [6]: inhibit pADPr formation
CC1CS(=O)(=O)CCN1/N=C/c1ccc([N+](=O)[O-])o1 (centres unmarked) [Nifurtimox],,,,effect on epimastigote growth (T. cruzi epimastigotes [2]; 2.5 µM): small effect
"O=C(c1cc(Cc2n[nH]c(=O)c3ccccc23)ccc1F)N1CCN(C(=O)C2CC2)CC1 [Olaparib, 4-({3-[(4-cyclopropanecarbonylpiperazin-1-yl)carbonyl]-4-fluorophenyl}methyl)-1,2-dihydrophthalazin-1-one]",3.4,3.39,,"decrease in growth of the parasites (T. cruzi epimastigotes [2]; 25 nM): 50%; effect on epimastigote growth (T. cruzi epimastigotes [2]; 25 nM): diminished epimastigote growth significantly; number of trypomastigotes in the supernatant ([7]; 25 nM): no significant difference; number of amastigotes per cell ([7]; 25 nM in growth medium): decrease in the number of amastigotes per cell; % of Infected Cells, Day 2 ([7]; Olaparib 25 nM, mean±SD): 38.67±7.68%; % of Infected Cells, Day 4 ([7]; Olaparib 25 nM, mean±SD): 13.54±3.40 %; % of Infected Cells, Day 6 ([7]; Olaparib 25 nM, mean±SD): 22.03±2.36 %; growth of uninfected Vero cells (Vero cells): did not alter the growth of the cell line; number of amastigotes per cell ([8]; day 6 post-infection): markedly decreased; number of trypomastigotes in the growth medium ([8]; day 9 post-infection): no significant difference"
"C[C@]1(c2nc3c(C(N)=O)cccc3[nH]2)CCCN1 [Veliparib, 2-[(2R)-2-methylpyrrolidin-2-yl]-1H-1,3-benzodiazole-4-carboxamide]",83,83.2,,Ki (hPARP-1): 5 nM
CC1(C)CCC2=C(O1)c1ccccc1C(=O)C2=O [β-lapachone],,,,effect on epimastigote growth (T. cruzi epimastigotes [2]; 2.5 µM): small effect

# The next lines start with results.
IC50 (TcPARP [1]; read-out: TcPARP IC50) [nM],IC50 (TcPARP [1]; [9]) [nM],Compound,IC50 (hPARP-1) [nM],further results
180,,"Cn1cccc1/C=C1\C(=O)NC(=O)c2ccccc21 [BYK204165, (4Z)-4-[(1-methyl-1H-pyrrol-2-yl)methylidene]-1,2,3,4-tetrahydroisoquinoline-1,3-dione]",45,"TcPARP pIC50±SE (TcPARP [1]): 6.74±0,090"
170,174,"NC(=O)c1cccc2ncc(-c3ccc(Cl)cc3)nc12 [CNQ, 3-(4-chlorophenyl)quinoxaline-5-carboxamide]",33,
26000,26300,"NC(=O)c1cccc(N)c1 [Compound 3-AB, 3-aminobenzamide]",33000,reduction of parasite growth compared to the control (T. cruzi epimastigotes [2]; 660 µM): approximately 60%; reduction of parasite growth compared to the control (T. cruzi epimastigotes [2]; 6.6 mM): approximately 60%; effect on T. cruzi epimastigote growth (T. cruzi epimastigotes [3]): able to reduce T. cruzi epimastigote growth; inhibition of differentiation of amastigotes to trypomastigotes (T. cruzi amastigotes): to a lesser extent
1400,1380,"Cc1nc2c(c(=O)[nH]1)CSCC2 [DR2313, 2-methyl-1H,4H,5H,7H,8H-thiopyrano[4,3-d]pyrimidin-4-one]",,
230,224,"CN(C)CC(=O)Nc1ccc2[nH]c(=O)c3ccccc3c2c1 [PJ-34, 2-(dimethylamino)-N-(6-oxo-5,6-dihydrophenanthridin-2-yl)acetamide]",,
1600,1620,"O=c1[nH]c2ccccc2c2ccccc12 [Phenanthridinone, 5,6-dihydrophenanthridin-6-one]",560,
1300,1260,"Oc1nc(C2CC2)nc2c1CSCC2 [RF03876, 2-cyclopropyl-5H,7H,8H-thiopyrano[4,3-d]pyrimidin-4-ol]",,
25,25.7,"CNCc1ccc(-c2[nH]c3cc(F)cc4c3c2CCNC4=O)cc1 [Rucaparib, 6-fluoro-2-{4-[(methylamino)methyl]phenyl}-3,10-diazatricyclo[6.4.1.0^{4,13}]trideca-1,4(13),5,7-tetraen-9-one]",,
